Reference: patent US9273101B2, “Functionalized biomaterials for tissue regeneration” (Nanomed3D S.R.L., priority 2011, dated 2016)
Entries after “also recorded” stand apart in the source; their conditions may differ.

Key:
[1] = system: NSCs cultured in suspension; assay: Phage biopanning (Ph.D.-7 library) against NSCs in suspension; type: binding, murine; settings: after three rounds of biopanning; for %, eluted phage clones / Frequency, eluted phage clones: membrane bound phages (MP); for %, internalized phage clones / Frequency, internalized phage clones: internalized clones (IP)
Protocol: (§1) Two days prior cell seeding murine NSCs were mechanically dissociated in order to seed the maximum percentage of stem cells.
(§2) The Ph.D.-7 phage library was used (New England Biolabs), composed of phage clones with random 7-mer peptides fused to the N-terminal of PIII, a minor coat protein of M13 phage.
(§3) Before biopanning experiments against NSCs in adhesion, the phage library was incubated in a Laminin-coated tissue culture dish in order to remove phages with affinity to the Laminin coated plastic surface (negative selection). Mouse Laminin (10 mL at 25 μg/ml concentration) (Roche) was incubated overnight at 37° C. 10^12 cfu of phages were incubated for one hour at 37° C. in pre-warmed Incubation Medium (DMEM supplemented with 0.1% BSA) in Laminin-coated plastic surfaces (setting for adhering NSCs) or plain plastic surfaces (setting for NSCs in suspension). Then incubation Medium and a total volume of five washes of Washing Buffer (DPBS supplemented with 1% BSA and 0.05% Tween-20) were collected and eluted phages were amplified as described in the standard protocol of New England Biolabs.
(§4) 10^12 cfu of the negatively selected phage library were diluted in 10 ml Incubation Medium and pipetted onto the adhering NSCs or NSCs in suspension.
(§5) After 1 hour of incubation at 37° C. cells were washed five times with pre-warmed Washing Buffer, cell membrane bound phages (MP) and internalized clones (IP) were recovered from independent duplicates of differentiating progenies by eluting and/or lysing the cells respectively. The cell surface was stripped by a 5 minutes incubation of 5 ml of Glycine Buffer (0.2 M Glycine-HCl supplemented with 1 mg/ml BSA (pH 2.2)) at RT. Eluted Phages were neutralized with 5 ml of 1 M Tris-HCl buffer (pH 8) and amplified.
(§6) Cells were then lysed with 9 ml of Lysing Buffer (0.1% TEA in PBS) for 5 minutes at RT. Internalized phages were neutralized with 1 ml of 1 M Tris-HCl buffer.
(§7) Neutralized phages were titered by infection of Escherichia coli to monitor the selection. Internalized and eluted phages were amplified separately for another round of selection. Three rounds of positive selection were performed. At round number two and three the biopannings of internalized and eluted phages were performed in different cell cultures (but with identical culture conditions) by collecting the phages of interest (i.e. internalized phages from libraries of internalized phages) and discarding the leftovers.
(§8) After the third round of biopanning, phage clones were randomly picked out from the titer plates and sequenced. Thirty phage plaques per each set of phages were randomly picked for sequencing. A small number of clones wasn't successfully sequenced. […] In the case of panning against NSC in suspension the highest consensus was for KLPGWSG (SEQ ID NO: 10) (47.36 for MP), GETRAPL (SEQ ID NO: 12) (14.28% for IP and 10.52% for MP) and HAIYPRH (SEQ ID NO: 11) (28.57% for IP and 5.26% for MP).

murine NSCs [2] = assay: Imaging and cell proliferation assay (CellTiter 96 MTS) on assembled hydrogels, murine NSCs; type: cell-based; settings: 7 DIV; for cell viability / proliferated cell population (MTS): scaffolds 10 mg/ml, vs control, P<0.005
Protocol: (§9) In vitro tests were performed as previously described (8), in order to assess whether the biomaterials (assembled hydrogels) obtained with the SAPs of the present invention influenced NSCs adhesion, survival and/or differentiation. SAPeptides (30 μl for each well at a concentration of 10 mg/ml) were assembled into 96 multiwells two hours before cell. Cells (at a concentration of 2×10^4 cells/cm^2) were seeded on the top-surface of each assembled scaffold. Initially, cells were cultured with basal medium supplemented with βFGF (10 ng/ml), added to […]. At 3 days in vitro (DIV), βFGF medium was replaced with Leukemia Inhibitory Factor (LIF, Chemicon) (20 ng/ml) and Brain Derived Neurotrophic Factor (BDNF, Peprotech) (20 ng/ml). Fresh medium was added every three days. For both viability and differentiation assays positive and negative controls consisted of Cultrex-BME® substrate (R&D systems) (1:100 dilution in basal medium) and untreated bottom well surfaces respectively. Cell viability was quantified via CellTiter 96® Aqueous Proliferation Assay (Promega) at 7 DIV as recommended in the Promega protocol. After calibrating the linear response between the cell number and absorbance values, proliferated cell populations were quantified (n=5) by using a Vmax microplate reader (Molecular Devices) at 490 nm wavelength. Values, reported as means±standard error of the mean, were blanked to their respective controls consisting of same substrates and cell culture media without cells.

murine NSCs [3] = assay: Immunofluorescence of differentiated NSC progeny on SAP scaffolds, murine; type: cell-based
Protocol: as §9
(§10) Immunofluorescence tests were performed for assaying the phenotypes of the differentiated human and murine NSC progenies. In the case of KLP and Ac-KLP just murine NSC have been used. Ac-KLP and KLP scaffolds were prepared at different concentrations in order to display three different stiffness values (viz. 100, 500 and 1000 Pa). This was done to assess the influence of scaffold concentration (and consequently its stiffness) over NSC differentiation. All the other peptides were tested at 1% v/w concentration instead. The following antibodies were used: rabbit polyclonal against GFAP (1:500, DakoCytomation) for astrocytes, mouse monoclonal against βIII-Tubulin (1:500, Covance) for neurons, mouse monoclonal against GalC (1:200, Chemicon) and O4 (1:200, Chemicon) for oligodendrocyes. Secondary Abs were Goat anti Mouse Alexa 488 (1:1000, Molecular Probes), Goat anti Mouse Cy3 (1:1000, Jackson Immunoresearch), Goat anti Rabbit Cy3 (1:1000, Jackson Immunoresearch). Cell nuclei were counterstained with DAPI (Molecular Probes). Quantitative analyses were performed by counting 100-300 cells for each of 9 randomly chosen fields over a total of 3 independent experiments. Phase contrast and fluorescence images of the adhering cells were acquired via Zeiss microscopes Axioplan 2 and ApoTome System at one week after seeding.

human NSCs [4] = assay: Immunofluorescence of differentiated NSC progeny on SAP scaffolds, human; type: cell-based; settings: 1% scaffold, compared to Cultrex positive control
Protocol: as §9
as §10, with “Cell nuclei were counterstained with DAPI (Molecular Probes).” left out

human NSCs [5] = assay: Imaging and cell proliferation assay (CellTiter 96 MTS) on assembled hydrogels, human NSCs; type: cell-based; settings: 7 DIV; for cell viability / proliferated cell population (MTS): scaffolds 10 mg/ml, vs control, P<0.03
Protocol: as §9

[6] = system: murine NSCs in adhesion (Laminin coated dishes); assay: Phage biopanning (Ph.D.-7 library) against adhering NSCs; type: binding; settings: for Frequency, eluted phage clones / Frequency, internalized phage clones: clones sequenced after three rounds of biopanning; for Frequency, eluted phage clones / %, eluted phage clones: cell membrane bound phages (MP); for %, eluted phage clones / %, internalized phage clones: consensus after three rounds of biopanning; for %, internalized phage clones / Frequency, internalized phage clones: internalized clones (IP)
Protocol: as §1
NSCs, three million per plate, were seeded over Laminin coated 10 cm Petri dishes (Falcon). After an overnight incubation in 10 ml of βFGF supplemented (10 ng/ml) neural basal media, cells were washed with pre-warmed Incubation Medium.
as §2, §3, §4, §5, §6, §7, §8

[7] = 1% scaffold, compared to Cultrex positive control

Substance | Frequency, eluted phage clones [6] | %, eluted phage clones [6] | %, internalized phage clones [6] | Frequency, internalized phage clones [6] | also measured
ALTPWAF (Prepared by synthesis) [heptapeptide domain found by phage biopanning against NSCs] |  |  |  |  | %, eluted phage clones [1]: 10.52%; Frequency, eluted phage clones [1]: 2
Ac-FAQRVPPGGGLDLKLDLKLDLK-CONH2 (Ac-FAQRVPPGGGLDLKLDLKLDLK-NH2) |  |  |  |  | cell morphology, adhesion and spreading on assembled hydrogels (murine NSCs [2]): spread and branched cells; cell viability / proliferated cell population (MTS) (murine NSCs [2]): cell population was bigger; number of neurons (βIII-Tubulin) obtained (murine NSCs [3]; [7]): significantly higher; number of oligodendrocytes (GalC/O4) obtained (murine NSCs [3]; [7]): significantly higher; number of neurons (βIII-Tubulin) obtained (human NSCs [4]): significantly higher; number of oligodendrocytes (GalC/O4) obtained (human NSCs [4]): significantly higher; cell morphology, adhesion and spreading on assembled hydrogels (human NSCs [5]): spread and branched cells; cell viability / proliferated cell population (MTS) (human NSCs [5]): cell population was bigger
FAQRVPP (Prepared by synthesis) [heptapeptide domain found by phage biopanning against NSCs] | 15 | 62.5% | 53.5% |  | 
GETRAPL (Prepared by synthesis) [heptapeptide domain found by phage biopanning against NSCs] |  |  |  |  | %, internalized phage clones [1]: 14.28%; Frequency, internalized phage clones [1]: 2; %, eluted phage clones [1]: 10.52%; Frequency, eluted phage clones [1]: 2
GKPMPPM (Prepared by synthesis) [heptapeptide domain found by phage biopanning against NSCs] |  |  |  |  | %, eluted phage clones [1]: 10.52%; Frequency, eluted phage clones [1]: 2
HAIYPRH (Prepared by synthesis) [heptapeptide domain found by phage biopanning against NSCs] |  |  |  |  | %, internalized phage clones [1]: 28.57%; Frequency, internalized phage clones [1]: 4; %, eluted phage clones [1]: 5.26%; Frequency, eluted phage clones [1]: 1
KLPGWSG (Prepared by synthesis) [heptapeptide domain found by phage biopanning against NSCs] |  |  |  |  | %, eluted phage clones [1]: 47.36%; Frequency, eluted phage clones [1]: 9
LQAIPRN (Prepared by synthesis) [heptapeptide domain found by phage biopanning against NSCs] |  |  | 3.5% | 1 | 
LTTGSGS | 1 | 4.2% |  |  | 
NH2-KLPGWSGGGGLDLKLDLKLDLK-CONH2 (H-KLPGWSGGGGLDLKLDLKLDLK-NH2) |  |  |  |  | cell morphology, adhesion and spreading on assembled hydrogels (murine NSCs [2]): fostered NSCs adhesion and spreading similarly to FAQ; differentiated neurons (βIIITubulin positive cells) in correspondence of stiffness reductions (murine NSCs [3]; scaffold stiffness 100, 500 and 1000 Pa): significant increments
NH2-QHLPRDHGGGLDLKLDLKLDLK-CONH2 (H-QHLPRDHGGGLDLKLDLKLDLK-NH2) |  |  |  |  | cell viability / proliferated cell population (MTS) (murine NSCs [2]): significantly fostered cell viability; also recorded: significantly favored; cell viability / proliferated cell population (MTS) (human NSCs [5]): significantly fostered cell viability; also recorded: significantly favored
QHLPRDH (Prepared by synthesis) [heptapeptide domain found by phage biopanning against NSCs] | 2 | 8.3% | 14.2% | 4 | 
SASHWQI (Prepared by synthesis) [heptapeptide domain found by phage biopanning against NSCs] |  |  | 3.5% | 1 | 
SILPYPY (Prepared by synthesis) [heptapeptide domain found by phage biopanning against NSCs] |  |  |  |  | %, internalized phage clones [1]: 14.28%; Frequency, internalized phage clones [1]: 2
SLPKLPP (Prepared by synthesis) [heptapeptide domain found by phage biopanning against NSCs] |  |  | 3.5% | 1 | 
SSELVTH | 1 | 4.2% |  |  | 
SSLSVND (Prepared by synthesis) [heptapeptide domain found by phage biopanning against NSCs] | 1 | 4.2% | 10.7% | 3 | 
TAVNSDA | 1 | 4.2% |  |  | 
TPLSSHS (Prepared by synthesis) [heptapeptide domain found by phage biopanning against NSCs] |  |  | 3.5% | 1 | 
TPPFAAW | 1 | 4.2% |  |  | 
TTTPTTP | 1 | 4.2% |  |  | 
YIIPMHD (Prepared by synthesis) [heptapeptide domain found by phage biopanning against NSCs] | 1 | 4.2% | 3.5% | 1 | 
YRMPIWP (Prepared by synthesis) [heptapeptide domain found by phage biopanning against NSCs] |  |  | 3.5% | 1 | 
